Where two headings read alike, the source gives them in different places.
Tests used:
Rhesus PDE2A3 = Rhesus PDE2A3 (Macaca mulatta, UniProt B3VTJ2); assay: PDE2 fluorescence polarization (IMAP FP) inhibition assay, rhesus enzyme; format: biochemical, rhesus macaque
Procedure, shortened: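 IMAP FP (mP from parallel and perpendicular fluorescence against substrate-only control) was read ≥1 h after adding binding reagent. The preceding 60 min room-temperature reaction contained FAM-cAMP (50 nM) and cGMP (1 uM) in pH 7.2 Tris buffer with MgCl2 and DTT. Enzyme was supernatant of sonicated AD293 cells expressing rhesus PDE2A3; compounds were 3-fold titrated, DMSO 1% final.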

human PDE2A1 = human PDE2A1 (Homo sapiens (Human), UniProt O00408); assay: IMAP FP PDE selectivity panel, human PDE2A1; format: biochemical
Chain of human PDE2A1 (O00408 other isoform, or with tags, fused parts or gaps): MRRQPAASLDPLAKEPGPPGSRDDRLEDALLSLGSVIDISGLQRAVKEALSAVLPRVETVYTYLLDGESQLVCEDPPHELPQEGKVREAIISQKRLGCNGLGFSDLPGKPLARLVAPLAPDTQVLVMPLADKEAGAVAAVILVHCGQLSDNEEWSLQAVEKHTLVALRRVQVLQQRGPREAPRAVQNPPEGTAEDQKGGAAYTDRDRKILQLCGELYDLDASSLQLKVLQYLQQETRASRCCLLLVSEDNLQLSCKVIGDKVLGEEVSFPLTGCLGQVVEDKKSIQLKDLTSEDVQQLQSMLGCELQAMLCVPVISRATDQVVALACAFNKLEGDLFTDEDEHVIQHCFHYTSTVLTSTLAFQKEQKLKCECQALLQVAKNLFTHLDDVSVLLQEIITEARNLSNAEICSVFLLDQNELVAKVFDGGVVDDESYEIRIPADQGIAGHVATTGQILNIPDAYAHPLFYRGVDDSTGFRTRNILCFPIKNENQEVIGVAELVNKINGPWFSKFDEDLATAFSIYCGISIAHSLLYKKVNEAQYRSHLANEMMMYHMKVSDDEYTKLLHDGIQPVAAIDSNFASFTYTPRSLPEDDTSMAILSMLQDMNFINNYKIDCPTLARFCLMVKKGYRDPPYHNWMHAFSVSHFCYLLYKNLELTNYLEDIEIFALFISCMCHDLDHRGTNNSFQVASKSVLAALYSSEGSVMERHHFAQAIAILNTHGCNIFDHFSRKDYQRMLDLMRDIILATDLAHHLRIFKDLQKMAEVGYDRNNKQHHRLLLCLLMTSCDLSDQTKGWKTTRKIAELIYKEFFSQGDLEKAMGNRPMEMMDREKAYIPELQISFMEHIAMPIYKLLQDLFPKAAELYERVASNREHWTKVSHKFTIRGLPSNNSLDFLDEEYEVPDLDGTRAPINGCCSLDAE
Procedure, shortened: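 IMAP FP format: substrate 50 nM FAM-cAMP plus 1000 nM cGMP, enzyme (insect-cell GST-tagged human PDE2A1) at ~20% conversion, 60 min reaction at room temperature. Apparent inhibition constants calculated from parallel/perpendicular fluorescence with KM 10,000 nM.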

[1] = Rhesus PDE2, Lab A, read-out: Rhesus PDE2 Ki (nM) - Lab A
[2] = Human PDE2, Lab A, read-out: Human PDE2 Ki (nM) - Lab A
[3] = Rhesus PDE2, Lab B, read-out: Rhesus PDE2 Ki (nM) - Lab B
[4] = Human PDE2, Lab B, read-out: Human PDE2 Ki (nM) - Lab B

Chain of Rhesus PDE2A3 (B3VTJ2 1-941): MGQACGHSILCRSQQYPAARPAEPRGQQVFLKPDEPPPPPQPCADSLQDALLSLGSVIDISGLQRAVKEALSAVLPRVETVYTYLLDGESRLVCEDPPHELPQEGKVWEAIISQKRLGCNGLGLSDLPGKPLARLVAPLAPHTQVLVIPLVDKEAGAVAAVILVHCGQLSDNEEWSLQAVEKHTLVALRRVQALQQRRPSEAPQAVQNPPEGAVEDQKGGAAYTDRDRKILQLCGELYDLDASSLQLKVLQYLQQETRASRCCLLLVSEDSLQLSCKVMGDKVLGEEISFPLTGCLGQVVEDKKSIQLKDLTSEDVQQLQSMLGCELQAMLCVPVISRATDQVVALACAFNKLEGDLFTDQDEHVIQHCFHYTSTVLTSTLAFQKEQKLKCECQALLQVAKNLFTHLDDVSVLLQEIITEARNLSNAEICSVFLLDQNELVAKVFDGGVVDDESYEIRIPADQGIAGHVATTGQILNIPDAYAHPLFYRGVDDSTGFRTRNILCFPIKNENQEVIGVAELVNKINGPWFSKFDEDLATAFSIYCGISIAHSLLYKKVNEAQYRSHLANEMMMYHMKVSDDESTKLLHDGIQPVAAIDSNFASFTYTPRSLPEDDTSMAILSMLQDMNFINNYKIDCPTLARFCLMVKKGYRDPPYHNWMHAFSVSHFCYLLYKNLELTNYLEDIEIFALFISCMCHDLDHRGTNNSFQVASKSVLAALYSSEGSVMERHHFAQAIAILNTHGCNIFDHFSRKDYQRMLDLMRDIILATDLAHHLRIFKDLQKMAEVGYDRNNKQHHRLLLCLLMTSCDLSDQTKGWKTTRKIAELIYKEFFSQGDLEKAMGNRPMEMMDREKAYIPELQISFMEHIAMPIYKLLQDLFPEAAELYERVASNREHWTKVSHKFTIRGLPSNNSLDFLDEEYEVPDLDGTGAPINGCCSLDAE

SMILES	Ki (Rhesus PDE2A3; [1]) [nM]	Ki (human PDE2A1; [2]) [nM]	Ki (Rhesus PDE2A3; [3]) [nM]	Ki (human PDE2A1; [4]) [nM]
CC[C@@H](NC(=O)c1cc(=O)[nH]c(C2CC2)n1)c1ccc(OC(F)(F)F)cc1 [Example 225, 2-cyclopropyl-6-oxo-N-{(1R)-1-[4-(trifluoromethoxy)phenyl]propyl}-1,6-dihydropyrimidine-4-carboxamide]	8.3	4.6	–	–
CC(C)(C)[C@@H](NC(=O)c1cc(=O)[nH]c(C2CC2)n1)c1ccc(C(F)(F)F)cc1 [Example 262, 2-cyclopropyl-N-{(1R)-2,2-dimethyl-1-[4-(trifluoromethyl)phenyl]propyl}-6-oxo-1,6-dihydropyrimidine-4-carboxamide]	0.65	–	0.85	0.79
CC(C)(NC(=O)c1cc(=O)[nH]c(-c2ccccc2)n1)c1ccc(SC(F)(F)F)c(F)c1 [Example 361, N-(1-{3-fluoro-4-[(trifluoromethyl)sulfanyl]phenyl}-1-methylethyl)-6-oxo-2-phenyl-1,6-dihydropyrimidine-4-carboxamide]	~78	–	99	81
Cc1nc(C(=O)N[C@@H](c2ccc(S(F)(F)(F)(F)F)cc2)C(C)C)cc(=O)[nH]1 [Example 52, 2-methyl-N-{(1R)-2-methyl-1-[4-(pentafluoro-λ^6-sulfanyl)phenyl]propyl}-6-oxo-1,6-dihydropyrimidine-4-carboxamide]	5.1	–	6	6.4
COc1ccc(Cc2nc(C(=O)N[C@@H](c3ccc(C(F)(F)F)cc3)C(C)(C)C)cc(=O)[nH]2)cc1 [Example 455, N-{(1R)-2,2-dimethyl-1-[4-(trifluoromethyl)phenyl]propyl}-2-(4-methoxybenzyl)-6-oxo-1,6-dihydropyrimidine-4-carboxamide]	–	–	0.68	0.6
Cc1nc(C(=O)NC(C(=O)O)c2ccc(C(F)(F)F)cc2)cc(=O)[nH]1 (single isomer, unassigned) [Example 328]	33	38	–	–
Cc1nc(C(=O)N[C@H](C)c2ccc(C(F)(F)F)c(F)c2)cc(=O)[nH]1 [Example 20, N-{(1R)-1-[3-fluoro-4-(trifluoromethyl)phenyl]ethyl}-2-methyl-6-oxo-1,6-dihydropyrimidine-4-carboxamide]	25	24	–	–
Cc1nc(C(=O)NC2(c3ccc(SC(F)(F)F)c(F)c3)CCC2)cc(=O)[nH]1 [Example 129, N-(1-{3-fluoro-4-[(trifluoromethyl)sulfanyl]phenyl}cyclobutyl)-2-methyl-6-oxo-1,6-dihydropyrimidine-4-carboxamide]	218	184	–	–
COCc1nc(C(=O)N[C@@H](c2ccc(OC(F)(F)F)c(F)c2)C2CC2)cc(=O)[nH]1 [Example 117, N-{(R)-cyclopropyl[3-fluoro-4-(trifluoromethoxy)phenyl]methyl}-2-(methoxymethyl)-6-oxo-1,6-dihydropyrimidine-4-carboxamide]	80	~13	–	42
C[C@@H](NC(=O)c1cc(=O)[nH]c(-c2cccc(F)c2)n1)c1ccc(C(F)(F)F)cc1 [Example 138, 2-(3-fluorophenyl)-6-oxo-N-{(1R)-1-[4-(trifluoromethyl)phenyl]ethyl}-1,6-dihydropyrimidine-4-carboxamide]	76	69	–	–
Cc1nc(C(=O)NC(C)(C)c2ccc(C(F)(F)F)cc2F)cc(=O)[nH]1 [Example 596, N-{1-[2-fluoro-4-(trifluoromethyl)phenyl]-1-methylethyl}-2-methyl-6-oxo-1,6-dihydropyrimidine-4-carboxamide]	–	–	30	22
C[C@@H](NC(=O)c1cc(=O)[nH]c(-c2ccccc2)n1)c1ccc(OC(F)(F)F)cc1F [Example 152]	16	13	–	–
Cc1nc(C(=O)N[C@@H](c2ccc(C(F)(F)F)cc2)[C@@H](C)O)cc(=O)[nH]1 [Example 65, N-((1S,2R)-2-hydroxy-1-(4-(trifluoromethyl)phenyl)propyl)-2-methyl-6-oxo-1,6-dihydropyrimidine-4-carboxamide]	38	18	–	–
O=C(NC1(c2ccc(OC(F)(F)F)cc2)CC1)c1cc(=O)[nH]c(C2CC2)n1 [Example 299, 2-cyclopropyl-6-oxo-N-{1-[4-(trifluoromethoxy)phenyl]cyclopropyl}-1,6-dihydropyrimidine-4-carboxamide]	14	9.1	–	–
CC[C@@H](NC(=O)c1cc(=O)[nH]c(C2CC2)n1)c1ccc(SC(F)(F)F)cc1 [Example 236, 2-cyclopropyl-6-oxo-N-[(1R)-1-{4-[(trifluoromethyl)sulfanyl]phenyl}propyl]-1,6-dihydropyrimidine-4-carboxamide]	4.3	5.5	–	–
Cc1nc(C(=O)N[C@@H](c2ccc(SC(F)(F)F)c(F)c2)C2CC2)cc(=O)[nH]1 [Example 55, N-[(R)-cyclopropyl{3-fluoro-4-[(trifluoromethyl)sulfanyl]phenyl}methyl]-2-methyl-6-oxo-1,6-dihydropyrimidine-4-carboxamide]	11	7.8	–	–
COCc1nc(C(=O)N[C@@H](c2ccc(C(F)(F)F)c(F)c2)C2CC2)cc(=O)[nH]1 [Example 115, N-{(R)-cyclopropyl[3-fluoro-4-(trifluoromethyl)phenyl]methyl}-2-(methoxymethyl)-6-oxo-1,6-dihydropyrimidine-4-carboxamide]	73	15	–	–
COc1ccc(Cc2nc(C(=O)N[C@@H](c3ccc(OC(F)(F)F)c(F)c3)C3CC3)cc(=O)[nH]2)cc1 [Example 478, N-{(R)-cyclopropyl[3-fluoro-4-(trifluoromethoxy)phenyl]methyl}-2-(4-methoxybenzyl)-6-oxo-1,6-dihydropyrimidine-4-carboxamide]	–	–	2.1	1.7
COc1ccc(Cc2nc(C(=O)N[C@@H](c3ccc(C(F)(F)F)c(F)c3)C(C)(C)C)cc(=O)[nH]2)cc1 [Example 466, N-{(1R)-1-[3-fluoro-4-(trifluoromethyl)phenyl]-2,2-dimethylpropyl}-2-(4-methoxybenzyl)-6-oxo-1,6-dihydropyrimidine-4-carboxamide]	–	–	0.85	0.79
CC[C@@H](NC(=O)c1cc(=O)[nH]c(C)n1)c1ccc(SC(F)(F)F)c(F)c1 [Example 54, N-[(1R)-1-{3-fluoro-4-[(trifluoromethyl)sulfanyl]phenyl}propyl]-2-methyl-6-oxo-1,6-dihydropyrimidine-4-carboxamide]	9.7	5.5	–	–
C[C@@H](NC(=O)c1nc(C2CCC2)[nH]c(=O)c1C1CCC1)c1ccc(C(F)(F)F)cc1 [Example 335, (R)-2,5-dicyclobutyl-6-oxo-N-(1-(4-(trifluoromethyl)phenyl)ethyl)-1,6-dihydropyrimidine-4-carboxamide]	1320	1220	–	–
CC1([C@@H](NC(=O)c2cc(=O)[nH]c(C3CC3)n2)c2ccc(S(F)(F)(F)(F)F)cc2)CC1 [Example 454, 2-cyclopropyl-N-{(R)-(1-methylcyclopropyl)[4-(pentafluoro-λ^6-sulfanyl)phenyl]methyl}-6-oxo-1,6-dihydropyrimidine-4-carboxamide]	–	–	3.8	4
O=C(N[C@@H](c1ccc(OC(F)F)cc1)C1CC1)c1cc(=O)[nH]c(C2CC2)n1 [Example 446, 2-cyclopropyl-N-{(R)-cyclopropyl[4-(difluoromethoxy)phenyl]methyl}-6-oxo-1,6-dihydropyrimidine-4-carboxamide]	–	–	43	42
COc1ccc(Cc2nc(C(=O)N[C@@H](c3ccc(C(F)(F)F)cc3)C3CC3)cc(=O)[nH]2)cc1 [Example 481, N-{(R)-cyclopropyl[4-(trifluoromethyl)phenyl]methyl}-2-(4-methoxybenzyl)-6-oxo-1,6-dihydropyrimidine-4-carboxamide]	–	–	1.9	1.9
O=C(N[C@@H](c1ccc(SC(F)(F)F)cc1)C1CC1)c1cc(=O)[nH]c(C2CC2)n1 [Example 214, 2-cyclopropyl-N-[(R)-cyclopropyl{4-[(trifluoromethyl)sulfanyl]phenyl}methyl]-6-oxo-1,6-dihydropyrimidine-4-carboxamide]	5	2.4	–	–
Cc1nc(C(=O)N[C@@H](c2ccc(OC(F)F)cc2)C2(C)CC2)cc(=O)[nH]1 [Example 425, N-[(R)-[4-(difluoromethoxy)phenyl](1-methylcyclopropyl)methyl]-2-methyl-6-oxo-1,6-dihydropyrimidine-4-carboxamide]	–	–	29	30
C[C@@H](NC(=O)c1cc(=O)[nH]c(C2CC2)n1)c1ccc(OC(F)(F)F)cc1 [Example 10, 2-cyclopropyl-6-oxo-N-{(1R)-1-[4-(trifluoromethoxy)phenyl]ethyl}-1,6-dihydropyrimidine-4-carboxamide]	9.9	6	–	–
Cc1nc(C(=O)NC(C#N)c2ccc(C(F)(F)F)cc2)cc(=O)[nH]1 (centres unmarked) [Example 33, N-{cyano[4-(trifluoromethyl)phenyl]methyl}-2-methyl-6-oxo-1,6-dihydropyrimidine-4-carboxamide]	802	656	–	–
CC(C)[C@@H](NC(=O)c1cc(=O)[nH]c(-c2ccccc2)n1)c1ccc(S(F)(F)(F)(F)F)cc1 [Example 388, N-{(1R)-2-methyl-1-[4-(pentafluoro-λ^6-sulfanyl)phenyl]propyl}-6-oxo-2-phenyl-1,6-dihydropyrimidine-4-carboxamide]	–	–	4.7	3.9

Reference: patent publication US9815796B2 (Merck Sharp & Dohme Corp., priority 2013, dated 2017)
